Laboratory results reported in publication PMC5944969, “Characterization of a nontypeable Haemophilus influenzae thermonuclease” (PLoS ONE, 2018).

What was measured:
NTHi Nuc [1] = biological target: T1, NTHi Nuc (Haemophilus influenzae, UniProt Q57519); experiment: FRET nuclease assay, Cy3/BHQ2 single-stranded 30-mer DNA; format: biochemical; conditions: competitive (stated); pdTp 0.015 and 0.03 nM; enzyme 0.035 nM; 2 µM FRET substrate; 26 °C
T1 construct: gene HI_1296; N-terminal 6xHis tag (pET151/D-TOPO) cleaved with TEV protease; E. coli BL21*(DE3)
T1 sequence (Q57519 21-178): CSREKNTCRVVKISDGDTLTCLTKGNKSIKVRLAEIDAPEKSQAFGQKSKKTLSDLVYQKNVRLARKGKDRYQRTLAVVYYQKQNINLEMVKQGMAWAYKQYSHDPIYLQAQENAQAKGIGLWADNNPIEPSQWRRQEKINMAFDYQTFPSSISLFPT

NTHi Nuc [2] = biological target: T1, NTHi Nuc; experiment: thermal unfolding by dynamic light scattering; format: binding; conditions: pH 7; excess pdTp; onset temperature with ligand, not a shift; ramp 1.0 °C/min
Excerpt: thermal unfolding by dynamic light scattering on NTHi Nuc

With `Cc1cn([C@H]2C[C@H](OP(=O)(O)O)[C@@H](COP(=O)(O)O)O2)c(=O)[nH]c1=O` [thymidine 3,5-bisphosphate] the “FRET nuclease assay, Cy3/BHQ2 single-stranded 30-mer DNA” value (NTHi Nuc [1]) was “Half and equimolar concentrations of pdTp impacted initial rates of endonuclease activity” and the Tonset (NTHi Nuc [2]) was 48.1 ± 1.45 °C.
